No end group written: not given here.
Columns and labels:
[1] = tested on: primary dendritic cells from the bone marrow of BALB/c mice; assay: In vitro stimulation of primary dendritic cells; […]; type: cell-based
BALB/c (H-2d) mice [2] = assay: Cellular responses (spleen cell proliferation) after immunization with different MALP-2 doses (Example 3); type: in vivo; conditions: 1 μg MALP-2; spleen cells restimulated with β-galactosidase; day 28
Description: β-Galactosidase-specific T-cell proliferation responses of mouse spleen cells immunized by the i.p. or i.n. routes with either pure β-galactosidase (40 μg/dose) or β-galactosidase mixed with MAPL-2 (1 or 0.5 μg/dose) on days 0, 7 and 14. On day 28 after the primary immunization, the animals were sacrificed and the spleen cells were restimulated in vitro in the presence of 20 μg/ml soluble β-galactosidase for four days. The results are shown as stimulation indices (cpm of samples/cpm in unstimulated control cells).
Six- to eight-week old female BALB/c (H-2d) mice were purchased from Harlan Winkelmann GmbH (Borchen, Germany) and treated in accordance with local and EU directives. Groups each of 5 mice were immunized on day 1, 7 and 14 either with 40 μg of pure β-galactosidase (Boehringer, Mannheim, Germany), or with admixture of 1 or 0.5 μg of synthetic MALP-2. For the intranasal administration (i.n.), 10 μl was administered into each nostril, while for the i.p. injection β-galactosidase was resuspended with or without MALP-2 in 400 μl of PBS. […] The cells were then harvested on filter paper (Filtermat A; Wallac, Freiburg, Germany) with a cell harvester (Inotech, Wohlen, Switzerland), and the amount of [H]thymidine incorporated into the DNA of the proliferated cells was determined with the aid of a […] scintillation counter (Wallac 1450, Micro-Trilux). […]

BALB/c (H-2d) mice [3] = assay: β-Galactosidase-specific IgA in lung and vaginal lavages of mice immunized i.n. (Example 5); type: in vivo
Description: The results are shown as percentage of β-galactosidase-specific IgA in relation to the total IgA present. The SEM is indicated by vertical lines.
The mice were sacrificed on day 31, and the final samples were taken. Vaginal and lung lavages were obtained by rinsing the organs with 1 ml of PBS supplemented by 50 mM EDTA, 0.1% BSA and 10 mM PMSF. The lavages were then centrifuged in order to remove tissue detritus (10 min at 3000×g) and the remaining liquid was stored at −20° C. In order to determine the total IgA concentration in the rinsings from lung and vagina, serial dilutions of the corresponding samples were incubated in microtiter plates, these plates having previously been coated with goat anti-mouse IgA (Sigma Chemie) as capture antibody (100 μl/well). Serial dilutions of purified mouse IgA (Sigma Chemie) were used to produce a standard plot.

BALB/c (H-2d) mice [4] = assay: Serum IgE level after immunization (capture ELISA, Example 6); type: in vivo; conditions: MALP-2 i.p. or via the mucous membranes; day 28
Description: Mice were immunized intraperitoneally (i.p.) and intranasally (i.n.) either with pure β-galactosidase (40 μg), exclusively MALP-2 or β-galactosidase mixed with MALP-2 (0.5 μg) on days 0, 7 and 14. On day 28 after the first immunization, serum samples were obtained, and the IgE levels were determined by means of a capture ELISA. The results are shown as IgE concentrations (ng/ml).
To determine the total IgE concentration in the serum of immunized and control animals, serial dilutions of the appropriate samples were incubated in microtiter plates which had previously been coated with anti-mouse IgE (100 μl/well) as capture antibody. After blocking with PBS with 1% BSA and 0.05% Tween-20 at room temperature for two hours, a 1:100 dilution of the serum in PBS-Tween was added (100 μl/well) and the plates were incubated at 37° C. for one hour. After rinsing, biotinylated anti-mouse IgE was added and the plates were incubated at 37° C. for a further hour. After rinsing four times, 100 μl of peroxidase-conjugated streptavidin (Pharmingen) were put in the wells, and the plates were incubated at 37° C. for 30 minutes. After rinsing four times, the reactions were developed by means of ABTS in 0.1 M citrate-phosphate buffer (pH 4.35) and a content of 0.01% H2O2. Serial dilutions of purified mouse IgE were used to produce a standard plot.

BALB/c (H-2d) mice [5] = type: in vivo; conditions: mice immunized i.n.; β-gal restimulation
immunized animals = assay: Tolerability and anti-adjuvant antibodies in immunized animals; conditions: after intranasal administration of MALP-2 as adjuvant

S-[2,3-bispalmitoyloxypropyl]cysteinyl-GNNDESNISFKEK ({S‑(2,3-bispalmitoyloxypropyl)Cys}-GNNDESNISFKEK) [MALP-2]
effect on expression of costimulating molecule CD80 in dendritic cells ([1]; 5 ng/ml MALP-2, 12 and 24 hours): slight, if present at all | expression of CD40 and costimulating molecule CD86 in dendritic cells ([1]; 5 ng/ml MALP-2, 12 and 24 hours, versus LPS positive control): not increased | activation of primary dendritic cells ([1]; 5 ng/ml MALP-2, compared with LPS 10 ng/ml): only a very weak activation | up regulation of CD40, CD80 and CD86 in dendritic cells ([1]; 10 ng/ml LPS or 5 ng/ml MALP-2): only a weak effect, or none | cell-mediated immunization (spleen cell proliferation) at higher dose (BALB/c (H-2d) mice [2]): cell-mediated immunization is reduced | levels of β-galactosidase-specific antibodies in the mucous membranes, MALP-2 versus CTB (BALB/c (H-2d) mice [3]; 0.5 μg MALP-2 versus 10 μg CTB, i.n.): No statistically significant differences | antigen-specific IgA, based on the total IgA, in lung lavages (BALB/c (H-2d) mice [3]; MALP-2 as adjuvant, i.n.): 36% | antigen-specific IgA, based on the total IgA, in vaginal lavages (BALB/c (H-2d) mice [3]; MALP-2 as adjuvant, i.n.): 23% | β-galactosidase-specific IgA in lung rinsings (BALB/c (H-2d) mice [3]; i.n. immunization, day 31): significant increase | β-galactosidase-specific IgA in vaginal rinsings (BALB/c (H-2d) mice [3]; i.n. immunization, day 31): significant concentrations | serum IgE content (BALB/c (H-2d) mice [4]): does not lead to an increase | IL-10 content in supernatants of spleen cells stimulated in vitro (BALB/c (H-2d) mice [5]): 2.2 ng/mL | anti-MALP-2 antibodies (immunized animals): No anti-MALP-2 antibodies were detectable

From patent US10905761B2, “Use of a lipopeptide or lipoprotein as an adjuvant in therapeutic or prophylactic vaccinations” (HELMHOLTZ-ZENTRUM FUER INFEKTIONSFORSCHUNG GMBH, priority 2002, dated 2021)
